Test results taken from the NIST ThermoML archive (doi:10.1021/je800658v).
Numbers after ± are expanded uncertainties.

Assay: activity coefficient (dimensionless); of the first substance listed, at infinite dilution; xn = mol fraction of the nth substance listed
Details: Liquid, x1 = 0
[1] = 303.35 K, inverse gas chromatography
[2] = 312.55 K, inverse gas chromatography
[3] = 322.55 K, inverse gas chromatography
[4] = 332.55 K, inverse gas chromatography

| Compound | activity coefficient [1] | activity coefficient [2] | activity coefficient [3] | activity coefficient [4] | activity coefficient (303.35 K, Chromatography) | activity coefficient (312.55 K, Chromatography) | activity coefficient (322.55 K, Chromatography) | activity coefficient (332.55 K, Chromatography) |
| --- | --- | --- | --- | --- | --- | --- | --- | --- |
| CCc1ccccc1 [ethylbenzene] + CCCCn1cc[n+](C)c1.F[B-](F)(F)F | 7.25 ± 0.44 | 6.73 ± 0.4 | 6.85 ± 0.41 | 6.51 ± 0.39 |  |  |  |  |
| CCCCCCC [heptane] + CCCCn1cc[n+](C)c1.F[B-](F)(F)F | 259 ± 16 | 250 ± 15 | 216 ± 13 | 142 ± 8.7 |  |  |  |  |
| C=CCCCC [hex-1-ene] + CCCCn1cc[n+](C)c1.F[B-](F)(F)F | 48 ± 2.9 | 39.3 ± 2.4 | 36.3 ± 2.2 | 38.8 ± 2.3 |  |  |  |  |
| CCCCCC [hexane] + CCCCn1cc[n+](C)c1.F[B-](F)(F)F |  |  |  |  | 133 ± 9.1 | 130 ± 9 | 97.4 ± 6.7 | 74.2 ± 5.1 |
| C=O [methanal] + CCCCn1cc[n+](C)c1.F[B-](F)(F)F | 0.22 ± 0.01 | 0.23 ± 0.01 | 0.26 ± 0.02 | 0.25 ± 0.02 |  |  |  |  |
| CO [methanol] + CCCCn1cc[n+](C)c1.F[B-](F)(F)F | 1.22 ± 0.07 | 1.22 ± 0.07 | 1.22 ± 0.07 | 1.18 ± 0.07 |  |  |  |  |
| CC1CCCCC1 [methylcyclohexane] + CCCCn1cc[n+](C)c1.F[B-](F)(F)F | 98.3 ± 5.9 | 82.7 ± 5 | 64.2 ± 3.9 | 57.1 ± 3.4 |  |  |  |  |
| CC1CCCC1 [methylcyclopentane] + CCCCn1cc[n+](C)c1.F[B-](F)(F)F | 62.2 ± 3.7 | 53.5 ± 3.2 | 42.8 ± 2.6 | 55.4 ± 3.3 |  |  |  |  |
| C[N+](=O)[O-] [nitromethane] + CCCCn1cc[n+](C)c1.F[B-](F)(F)F | 0.59 ± 0.04 | 0.56 ± 0.03 | 0.56 ± 0.03 | 0.56 ± 0.03 |  |  |  |  |
| CCCCCCCCC [nonane] + CCCCn1cc[n+](C)c1.F[B-](F)(F)F | 956 ± 57 | 793 ± 48 | 612 ± 37 | 464 ± 28 |  |  |  |  |
| CCCCCCCC [octane] + CCCCn1cc[n+](C)c1.F[B-](F)(F)F | 425 ± 26 | 368 ± 22 | 333 ± 20 | 298 ± 18 |  |  |  |  |
| CCCC(C)=O [pentan-2-one] + CCCCn1cc[n+](C)c1.F[B-](F)(F)F | 2.6 ± 0.16 | 2.6 ± 0.16 | 2.66 ± 0.16 | 2.53 ± 0.15 |  |  |  |  |
| CCC(=O)CC [pentan-3-one] + CCCCn1cc[n+](C)c1.F[B-](F)(F)F | 2.63 ± 0.16 | 2.57 ± 0.15 | 2.66 ± 0.16 | 2.52 ± 0.15 |  |  |  |  |
| CCCO [propan-1-ol] + CCCCn1cc[n+](C)c1.F[B-](F)(F)F | 3.12 ± 0.19 | 2.7 ± 0.16 | 2.43 ± 0.15 | 2.14 ± 0.13 |  |  |  |  |
| CC(C)O [propan-2-ol] + CCCCn1cc[n+](C)c1.F[B-](F)(F)F | 3.2 ± 0.19 | 2.76 ± 0.17 | 2.5 ± 0.15 | 2.15 ± 0.13 |  |  |  |  |
| CCC=O [propanal] + CCCCn1cc[n+](C)c1.F[B-](F)(F)F | 1.38 ± 0.08 | 1.33 ± 0.08 | 1.29 ± 0.08 | 1.21 ± 0.07 |  |  |  |  |
| c1ccncc1 [pyridine] + CCCCn1cc[n+](C)c1.F[B-](F)(F)F | 1 ± 0.06 | 0.99 ± 0.06 | 0.97 ± 0.06 | 0.94 ± 0.06 |  |  |  |  |
| ClC(Cl)(Cl)Cl [tetrachloromethane] + CCCCn1cc[n+](C)c1.F[B-](F)(F)F | 5.53 ± 0.33 | 5.44 ± 0.33 | 5.38 ± 0.32 | 5.2 ± 0.31 |  |  |  |  |
| c1ccsc1 [thiophene] + CCCCn1cc[n+](C)c1.F[B-](F)(F)F | 1.56 ± 0.09 | 1.52 ± 0.09 | 1.54 ± 0.09 | 1.49 ± 0.09 |  |  |  |  |
| Cc1ccccc1 [toluene] + CCCCn1cc[n+](C)c1.F[B-](F)(F)F | 4.37 ± 0.26 | 3.96 ± 0.24 | 3.97 ± 0.24 | 3.84 ± 0.23 |  |  |  |  |
| ClC(Cl)Cl [trichloromethane] + CCCCn1cc[n+](C)c1.F[B-](F)(F)F | 1.04 ± 0.06 | 1.04 ± 0.06 | 1.09 ± 0.07 | 1.09 ± 0.07 |  |  |  |  |
| CCN(CC)CC [triethylamine] + CCCCn1cc[n+](C)c1.F[B-](F)(F)F | 9.44 ± 0.57 | 8.9 ± 0.6 | 35.3 ± 2.2 | 59.4 ± 3.6 |  |  |  |  |
